Measured values reported in patent EP0003415A2, “Beta-Lactam compounds, processes for their preparation,compositions containing them and intermediates of use in their preparation” (GLAXO GROUP LIMITED, priority 1978, dated 1979).
≈ marks a conversion by molar mass, not a printed value.

Assays:
Test in all cases: Determination of Minimum Inhibitory Concentrations (MIC), agar dilution
Format in all cases: cell-based
E. coli 851E = settings: Escherichia coli, clinical isolate, Oxoid No.1 Nutrient agar, approximately 10^5 colony forming units, read after 18 hours at 37°C
Text: (§1) Biological testing of two of the compounds of the invention has provided the results shown below; the test compounds are identified by their Example Numbers: 1. Determination of Minimum Inhibitory Concentrations (MIC) Serial two-fold dilutions of freshly prepared test solutions were made into Oxoid No.l Nutrient agar with or without added enrichment and poured into petri […] Plates were inoculated with a multipoint inoculator with inoculum containing approximately 10^5 colony forming units of the organisms shown in the following Tables, all of which organisms are clinical isolates. The MIC, quoted in the Table as μg/ml, was read after 18 hours incubation at 37°C as the lowest concentration which inhibited growth.

H. influenzae 1184E = settings: Haemophilus influenzae, clinical isolate, Oxoid No.1 Nutrient agar, approximately 10^5 colony forming units, read after 18 hours at 37°C
Text: as §1

K. aerogenes 1522E = settings: Klebsiella aerogenes, clinical isolate, Oxoid No.1 Nutrient agar, approximately 10^5 colony forming units, read after 18 hours at 37°C
Text: as §1

S. marcescens 1324E = settings: Serratia marcescens, clinical isolate, Oxoid No.1 Nutrient agar, approximately 10^5 colony forming units, read after 18 hours at 37°C
Text: as §1

E. cloacae 1321E = settings: Enterobacter cloacae, clinical isolate, Oxoid No.1 Nutrient agar, approximately 10^5 colony forming units, read after 18 hours at 37°C
Text: as §1

E. cloacae 1051E = settings: Enterobacter cloacae, clinical isolate, Oxoid No.1 Nutrient agar, approximately 10^5 colony forming units, read after 18 hours at 37°C
Text: as §1

Micrococcus Sp 1810E = settings: SP1810E, clinical isolate, Oxoid No.1 Nutrient agar, approximately 10^5 colony forming units, read after 18 hours at 37°C
Text: as §1

Staph.aureus 853E = settings: Staphylococcus aureus, clinical isolate, Oxoid No.1 Nutrient agar, approximately 10^5 colony forming units, read after 18 hours at 37°C
Text: as §1

Compound	MIC (E. coli 851E) [µg/mL]	MIC (H. influenzae 1184E) [µg/mL]	MIC (K. aerogenes 1522E) [µg/mL]	MIC (S. marcescens 1324E) [µg/mL]	MIC (E. cloacae 1321E) [µg/mL]	MIC (E. cloacae 1051E) [µg/mL]	MIC (Micrococcus Sp 1810E) [µg/mL]	MIC (Staph.aureus 853E) [µg/mL]
NCCC1=C(C(=O)O)N2C(=O)CC2S1 (racemic) [Example 4, (5RS)-2-(2-Aminoethyl)pen-2-em-3-carboxylic acid]	8 (≈ 37.3 µM)	62 (≈ 289 µM)	16 (≈ 74.7 µM)	31 (≈ 145 µM)	8 (≈ 37.3 µM)	8 (≈ 37.3 µM)	0.2 (≈ 0.934 µM)	1 (≈ 4.67 µM)
NCCCC1=C(C(=O)O)N2C(=O)CC2S1 (racemic) [Example 19, (5RS)-2-[3-Aminopropyl]-pen-2-em-3-carboxylate]	8 (≈ 35 µM)	16 (≈ 70.1 µM)	16 (≈ 70.1 µM)	31 (≈ 136 µM)	8 (≈ 35 µM)	16 (≈ 70.1 µM)	0.1 (≈ 0.438 µM)	0.5 (≈ 2.19 µM)
